From ChEMBL document CHEMBL1909046, “DrugMatrix in vitro pharmacology data” come the findings set out here.

For this test, the target named is Cytochrome P450 3A4 (Homo sapiens, UniProt P08684).
Chain of Cytochrome P450 3A4 (P08684 whole entry): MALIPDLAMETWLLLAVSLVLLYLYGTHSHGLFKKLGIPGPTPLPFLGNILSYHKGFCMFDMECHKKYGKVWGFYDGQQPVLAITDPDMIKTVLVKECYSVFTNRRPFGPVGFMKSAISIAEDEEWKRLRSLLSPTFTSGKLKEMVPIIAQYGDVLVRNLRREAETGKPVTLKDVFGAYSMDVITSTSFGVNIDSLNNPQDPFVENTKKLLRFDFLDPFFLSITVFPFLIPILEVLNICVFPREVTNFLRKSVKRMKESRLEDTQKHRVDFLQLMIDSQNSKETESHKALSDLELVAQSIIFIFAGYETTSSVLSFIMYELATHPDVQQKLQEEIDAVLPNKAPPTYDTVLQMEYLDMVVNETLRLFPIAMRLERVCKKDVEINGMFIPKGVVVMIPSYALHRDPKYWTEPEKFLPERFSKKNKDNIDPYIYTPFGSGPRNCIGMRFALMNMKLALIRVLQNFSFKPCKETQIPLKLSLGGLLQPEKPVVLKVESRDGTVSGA

For `CC(C)C[C@H]1C(=O)N2CCC[C@H]2[C@]2(O)O[C@](NC(=O)[C@@H]3C=C4c5cccc6[nH]cc(c56)C[C@H]4N(C)C3)(C(C)C)C(=O)N12` [ERGOCRYPTINE], the IC50 stood at 600 nM.
